Reference: patent US20170318812A1, “Plant and Crop Growth Regulating/Biostimulant Formulations and Methods of Use” (Arysta Lifescience North America, LLC, priority 2014, published 2017)

Test system: TRZAX Triticum aestivum (Soft wheat)
Test: Ipfencarbazone biostimulant effect, early post emergence foliar application, greenhouse pots, plant height: wheat
Format: in vivo
From the text: The original objective of this Example was to evaluate the herbicidal effect of ipfencarbazone when applied as a post emergent treatment to a range of selected crops and weeds. Unexpectedly, crop plant growth stimulation was observed. The actual species of weeds and crops are listed in the summary data tabulated below and in FIGS. 1-13. By convention each plant species has a Bayer code (5-letter name) with the scientific name for the plant referenced in FIGS. 1-13. In each Figure, each tray contains the same configuration of weeds and/or crops. In each Figure there is one replication of each treatment (six treatments in total). The top three photographs in each Figure show the Bayer Codes and bottom three photographs are aligned with the top three facilitating viewing of the same plant species. Throughout the Examples various abbreviations as conventional shorthand notation and will be appreciated by those skilled in the art. Some exemplary abbreviations include, “CV”=Co-efficient of Variation,” “LSD”=Least Significant Difference” (G/L (gram per L) AND GA/L (gram of active ingredient per L); “SC”=suspension concentrate formulation. The diluent in all treatments was water. By convention factors that are identical in all treatments (e.g. diluent and surfactant) are not listed in each treatment.
Methods: The indicated size pots (see Tables below) are filled with a specific soil, the soil properties being indicated below. The referenced crops and weeds are planted by hand in each pot. […] The experiments include six treatments each replicated three times on each crop/weed species. At a specific time after emergence each crop and weed species was treated with ipfencarbazone plus a non-ionic surfactant (NIS). In the present Example, the surfactant employed was ENERGIC™ (non-ionic surfactant). The application timing is indicated in each of the Tables (1 or 2 leaf stage) below. Ipfencarbazone plus surfactant was diluted in water and applied at a rate equivalent to about 250 L/ha. Ipfencarbazone was applied using a track sprayer. After treatment, the pots were randomized in a greenhouse. At each assessment (indicated by “days after treatment” or DAT) the height of each plant was measured. The letters next to each mean indicate the level of statistical significance.
Replications: 3, Untreated treatments: 1, Design: Randomized Complete Block (RCB), Treatment units: Treated ‘Plot’ experimental unit size, Dry Form. Unit: %, Treated ‘Plot’ experimental unit size Width: 1 meter, Treated ‘Plot’ experimental unit size Length: 1.4 meters, Application volume: 250 L/ha, Mix size: 0.15 liters, […]

[1] = TRZAX BRS327, 125 g ai/ha, 28 DA-A
[2] = TRZAX BRS327, 250 g ai/ha, 15 DA-A
[3] = TRZAX BRS327, 250 g ai/ha, 28 DA-A
[4] = TRZAX BRS327, 500 g ai/ha, 15 DA-A
[5] = TRZAX BRS327, 500 g ai/ha, 28 DA-A
[6] = TRZAX BRS327, 1000 g ai/ha, 15 DA-A
[7] = TRZAX BRS327, 1000 g ai/ha, 28 DA-A
[8] = TRZAX Iguaçú, 62.5 g ai/ha, 15 DA-A
[9] = TRZAX Iguaçú, 62.5 g ai/ha, 28 DA-A
[10] = TRZAX Iguaçú, 125 g ai/ha, 15 DA-A
[11] = TRZAX Iguaçú, 125 g ai/ha, 28 DA-A
[12] = TRZAX Iguaçú, 250 g ai/ha, 15 DA-A
[13] = TRZAX Iguaçú, 250 g ai/ha, 28 DA-A
[14] = TRZAX Iguaçú, 500 g ai/ha, 15 DA-A
[15] = TRZAX Iguaçú, 500 g ai/ha, 28 DA-A
[16] = TRZAX Iguaçú, 1000 g ai/ha, 15 DA-A
[17] = TRZAX Iguaçú, 1000 g ai/ha, 28 DA-A
[18] = TRZAX Itaipú, 62.5 g ai/ha, 15 DA-A
[19] = TRZAX Itaipú, 62.5 g ai/ha, 28 DA-A
[20] = TRZAX Itaipú, 125 g ai/ha, 15 DA-A
[21] = TRZAX Itaipú, 125 g ai/ha, 28 DA-A
[22] = TRZAX Itaipú, 250 g ai/ha, 15 DA-A
[23] = TRZAX Itaipú, 250 g ai/ha, 28 DA-A
[24] = TRZAX Itaipú, 500 g ai/ha, 15 DA-A
[25] = TRZAX Itaipú, 500 g ai/ha, 28 DA-A
[26] = TRZAX Itaipú, 1000 g ai/ha, 15 DA-A
[27] = TRZAX Itaipú, 1000 g ai/ha, 28 DA-A

CC(C)N(C(=O)n1cnn(-c2ccc(Cl)cc2Cl)c1=O)c1ccc(F)cc1F [ARY-0572-001, ipfencarbazone]
HEIGHT, treatment mean (TRZAX BRS327, 125 g ai/ha, 15 DA-A): 27.6 a cm | HEIGHT, percent of untreated check (APoC) [1]: (156.7%) | HEIGHT, treatment mean [1]: 35.0 a cm | HEIGHT, percent of untreated check (APoC) [2]: (171.4%) | HEIGHT, treatment mean [2]: 32.0 a cm | HEIGHT, percent of untreated check (APoC) [3]: (204.0%) | HEIGHT, treatment mean [3]: 45.6 a cm | HEIGHT, percent of untreated check (APoC) [4]: (130.7%) | HEIGHT, treatment mean [4]: 24.4 a cm | HEIGHT, percent of untreated check (APoC) [5]: (141.3%) | HEIGHT, treatment mean [5]: 31.6 a cm | HEIGHT, percent of untreated check (APoC) [6]: (92.9%) | HEIGHT, treatment mean [6]: 17.3 a cm | HEIGHT, percent of untreated check (APoC) [7]: (126.4%) | HEIGHT, treatment mean [7]: 28.2 a cm | HEIGHT, percent of untreated check (APoC) [8]: (158.8%) | HEIGHT, treatment mean [8]: 24.6 a cm | HEIGHT, percent of untreated check (APoC) [9]: (129.6%) | HEIGHT, treatment mean [9]: 29.2 bc cm | HEIGHT, percent of untreated check (APoC) [10]: (168.5%) | HEIGHT, treatment mean [10]: 26.1 a cm | HEIGHT, percent of untreated check (APoC) [11]: (133.5%) | HEIGHT, treatment mean [11]: 30.1 be cm | HEIGHT, percent of untreated check (APoC) [12]: (193.2%) | HEIGHT, treatment mean [12]: 29.9 a cm | HEIGHT, percent of untreated check (APoC) [13]: (192.1%) | HEIGHT, treatment mean [13]: 43.3 a cm | HEIGHT, percent of untreated check (APoC) [14]: (153.4%) | HEIGHT, treatment mean [14]: 23.8 ab cm | HEIGHT, percent of untreated check (APoC) [15]: (163.1%) | HEIGHT, treatment mean [15]: 36.8 ab cm | HEIGHT, percent of untreated check (APoC) [16]: (105.4%) | HEIGHT, treatment mean [16]: 16.3 bc cm | HEIGHT, percent of untreated check (APoC) [17]: (82.8%) | HEIGHT, treatment mean [17]: 18.7 c cm | HEIGHT, percent of untreated check (APoC) [18]: (169.2%) | HEIGHT, treatment mean [18]: 23.8 abc cm | HEIGHT, percent of untreated check (APoC) [19]: (154.6%) | HEIGHT, treatment mean [19]: 37.1 a cm | HEIGHT, percent of untreated check (APoC) [20]: (181.4%) | HEIGHT, treatment mean [20]: 25.5 ab cm | HEIGHT, percent of untreated check (APoC) [21]: (134.7%) | HEIGHT, treatment mean [21]: 32.3 a cm | HEIGHT, percent of untreated check (APoC) [22]: (223.7%) | HEIGHT, treatment mean [22]: 31.4 a cm | HEIGHT, percent of untreated check (APoC) [23]: (199.1%) | HEIGHT, treatment mean [23]: 47.8 a cm | HEIGHT, percent of untreated check (APoC) [24]: (157.7%) | HEIGHT, treatment mean [24]: 22.2 abc cm | HEIGHT, percent of untreated check (APoC) [25]: (100.0%) | HEIGHT, treatment mean [25]: 24.0 a cm | HEIGHT, percent of untreated check (APoC) [26]: (111.5%) | HEIGHT, treatment mean [26]: 15.7 bc cm | HEIGHT, percent of untreated check (APoC) [27]: (76.9%) | HEIGHT, treatment mean [27]: 18.4 a cm
